# Data published in patent publication US8916183B2, “Pesticidal compositions and processes related thereto” (priority 2012, dated 2014).
# Where two headings read alike, the source gives them in different places.
# What was measured:
# Format in all cases: in vivo
# [1] = system: Beet Armyworm (BAW) (Spodoptera exigua); assay: Bioassay on beet armyworm (BAW), 128-well diet tray assay; conditions: Spodoptera exigua, read-out: % Mortality BAW 50 μg/cm^2
# Experimental: (§1) Certain molecules disclosed in this document were tested against BAW and CEW using procedures described in the following examples. In the reporting of the results, the “BAW & CEW Rating Table” was used (See Table Section).
# Bioassays on BAW (Spodoptera exigua)
# Bioassays on BAW were conducted using a 128-well diet tray assay. […] Trays were covered with a clear self-adhesive cover and held at 25° C., 14:10 light-dark for five to seven days. Percent mortality was recorded for the larvae in each well; activity in the eight wells was then averaged. The results are indicated in the table entitled “Table 5: Biological Results” (See Table Section).
# [2] = system: Corn Earworm (CEW) (Helicoverpa zea); assay: Bioassay on corn earworm (CEW), 128-well diet tray assay; conditions: Helicoverpa zea, read-out: % Mortality CEW 50 μg/cm^2
# Experimental: as §1
# Bioassays on CEW (Helicoverpa zea)
# Bioassays on CEW were conducted using a 128-well diet tray assay. […] Trays were covered with a clear self-adhesive cover and held at 25° C., 14:10 light-dark for five to seven days. Percent mortality was recorded for the larvae in each well; activity in the eight wells was then averaged. The results are indicated in the table entitled “Table 5: Biological Results” (See Table Section).
# [3] = system: Green Peach Aphid (GPA) (Myzus persicae); assay: Bioassay on green peach aphid (GPA), foliar spray on cabbage seedlings; conditions: read-out: % Mortality GPA 200 ppm
# Experimental: Certain molecules disclosed in this document were tested against GPA using procedures described in the following example. In the reporting of the results, the “GPA Rating Table” was used (See Table Section).
# Cabbage seedlings grown in 3-inch pots, with 2-3 small (3-5 cm) true leaves, were used as test substrate. The seedlings were infested with 20-50 GPA (wingless adult and nymph stages) one day prior to chemical application. Four pots with individual seedlings were used for each treatment. Test compounds (2 mg) were dissolved in 2 mL of acetone/methanol (1:1) solvent, forming stock solutions of 1000 ppm test compound. […] A hand-held aspirator-type sprayer was used for spraying a solution to both sides of […] leaves until runoff. Reference plants (solvent check) were sprayed with the diluent only containing 20% by volume of acetone/methanol (1:1) solvent. Treated plants were held in a holding room for three days at approximately 25° C. and ambient relative humidity (RH) prior to grading. Evaluation was conducted by counting the number of live aphids per plant under a microscope. […] Corrected % Control=100*(X−Y)/X • where • X=No. of live aphids on solvent check plants and • Y=No. of live aphids on treated plants
# The results are indicated in the table entitled “Table 5: Biological Results” (See Table Section).
SMILES,"mortality at 50 µg/cm2 ([1]; beet armyworm, 50 μg/cm^2) [%]","mortality at 50 µg/cm2 ([2]; corn earworm, 50 μg/cm^2) [%]","mortality at 200 ppm ([3]; green peach aphid, 200 ppm) [%]",mortality at 50 µg/cm2 [1] [%],mortality at 50 µg/cm2 [2] [%],mortality at 200 ppm [3] [%]
CC1CS/C(=N\N=C\c2ccc(-c3ncn(-c4ccc(OC(F)(F)F)cc4)n3)cc2)N(c2ccccc2C(C)C)C1 (racemic) [Compound 178C],50 to 100,50 to 100,0,–,–,–
"CC(C)c1ccccc1N1C(=NN=Cc2ccc(-c3ncn(-c4ccc(OC(F)(F)F)cc4)n3)cc2)SCC1C (stereo in doubt) [Compound 155C, (Z)-3-(2-isopropylphenyl)-4-methyl-2-((E)-(4-(1-(4-(trifluoromethoxy)phenyl)-1H-1,2,4-triazol-3-yl)benzylidene)hydrazono)thiazolidine]",50 to 100,50 to 100,0,–,–,–
"CS/C(=N\c1ccc(N(C)C)cc1)N/N=C/c1ccc(-c2ncn(-c3ccc(OC(F)(F)F)cc3)n2)cc1 [Compound 1C, N-(4-dimethylaminophenyl)-S-methyl-2-{4-[1-(4-trifluoromethoxyphenyl)-1H-[1,2,4]-triazol-3-yl]-benzylidene}-hydrazine-carbothioamide]",50 to 100,50 to 100,0,–,–,–
CCS/C(=N\c1c(Cl)cccc1Cl)N/N=C/c1ccc(-c2ncn(-c3ccc(OC(F)(F)F)cc3)n2)cc1 [Compound 2C],50 to 100,50 to 100,0,–,–,–
CCCS/C(=N\c1c(Cl)cccc1Cl)N/N=C/c1ccc(-c2ncn(-c3ccc(OC(F)(F)F)cc3)n2)cc1 [Compound 3C],50 to 100,50 to 100,0,–,–,–
Cc1cccc(C)c1/N=C(/N/N=C/c1ccc(-c2ncn(-c3ccc(OC(F)(F)F)cc3)n2)cc1)SC/C=C/Br [Compound 4C],50 to 100,50 to 100,0 to 80,–,–,–
Cc1cccc(C)c1/N=C(/N/N=C/c1ccc(-c2ncn(-c3ccc(OC(F)(F)F)cc3)n2)cc1)SCc1c(F)cccc1F [Compound 5C],50 to 100,50 to 100,0 to 80,–,–,–
Cc1cccc(C)c1/N=C(/N/N=C/c1ccc(-c2ncn(-c3ccc(OC(F)(F)F)cc3)n2)cc1)SCc1ccc(C(=O)O)cc1 [Compound 6C],50 to 100,50 to 100,0,–,–,–
Cc1cccc(C)c1/N=C(/N/N=C/c1ccc(-c2ncn(-c3ccc(OC(F)(F)F)cc3)n2)cc1)SCc1ccc(F)cc1F [Compound 7C],0,50 to 100,0,–,–,–
Cc1cccc(C)c1/N=C(/N/N=C/c1ccc(-c2ncn(-c3ccc(OC(F)(F)F)cc3)n2)cc1)SCc1ccc(OC(F)(F)F)cc1 [Compound 8C],50 to 100,50 to 100,0 to 80,–,–,–
Cc1cccc(C)c1/N=C(/N/N=C/c1ccc(-c2ncn(-c3ccc(OC(F)(F)F)cc3)n2)cc1)SCC#C[Si](C)(C)C [Compound 9C],–,–,–,50 to 100,50 to 100,0
Cc1cccc(C)c1/N=C(/N/N=C/c1ccc(-c2ncn(-c3ccc(OC(F)(F)F)cc3)n2)cc1)SCc1ccccc1 [Compound 10C],50 to 100,50 to 100,0,–,–,–
Cc1cccc(C)c1/N=C(/N/N=C/c1ccc(-c2ncn(-c3ccc(OC(F)(F)F)cc3)n2)cc1)SCc1ccccc1F [Compound 11C],50 to 100,50 to 100,0,–,–,–
COC(=O)c1ccc(CS/C(=N\c2c(C)cccc2C)N/N=C/c2ccc(-c3ncn(-c4ccc(OC(F)(F)F)cc4)n3)cc2)cc1 [Compound 12C],50 to 100,50 to 100,0 to 80,–,–,–
Cc1cccc(C)c1/N=C(/N/N=C/c1ccc(-c2ncn(-c3ccc(OC(F)(F)F)cc3)n2)cc1)SCc1ccc(S(N)(=O)=O)cc1 [Compound 13C],50 to 100,50 to 100,0 to 80,–,–,–
Cc1cccc(C)c1/N=C(/N/N=C/c1ccc(-c2ncn(-c3ccc(OC(F)(F)F)cc3)n2)cc1)SCc1cccc2nsnc12 [Compound 14C],50 to 100,50 to 100,0 to 80,–,–,–
Cc1cccc(C)c1/N=C(/N/N=C/c1ccc(-c2ncn(-c3ccc(OC(F)(F)F)cc3)n2)cc1)SCc1ocnc1-c1ccccc1 [Compound 15C],50 to 100,50 to 100,80 to 100,–,–,–

SMILES,"mortality at 50 µg/cm2 ([1]; beet armyworm, 50 μg/cm^2) [%]","mortality at 50 µg/cm2 ([2]; corn earworm, 50 μg/cm^2) [%]","mortality at 200 ppm ([3]; green peach aphid, 200 ppm) [%]",mortality at 50 µg/cm2 [1] [%],mortality at 50 µg/cm2 [2] [%],mortality at 200 ppm [3] [%]
Cc1cccc(C)c1/N=C(/N/N=C/c1ccc(-c2ncn(-c3ccc(OC(F)(F)F)cc3)n2)cc1)SCc1ccc(C(F)(F)F)o1 [Compound 16C],50 to 100,50 to 100,0,–,–,–
Cc1cccc(C)c1/N=C(/N/N=C/c1ccc(-c2ncn(-c3ccc(OC(F)(F)F)cc3)n2)cc1)SCc1ccc(S(C)(=O)=O)cc1 [Compound 17C],50 to 100,50 to 100,0 to 80,–,–,–
Cc1cccc(C)c1/N=C(/N/N=C/c1ccc(-c2ncn(-c3ccc(OC(F)(F)F)cc3)n2)cc1)SCc1ccc(S(=O)(=O)Nc2ccc(F)cc2)cc1 [Compound 18C],50 to 100,50 to 100,0 to 80,–,–,–
Cc1cccc(C)c1/N=C(/N/N=C/c1ccc(-c2ncn(-c3ccc(OC(F)(F)F)cc3)n2)cc1)SCc1cc2c(C(F)(F)F)nn(C)c2s1 [Compound 19C],50 to 100,50 to 100,0 to 80,–,–,–
Cc1cccc(C)c1/N=C(/N/N=C/c1ccc(-c2ncn(-c3ccc(OC(F)(F)F)cc3)n2)cc1)SCc1c(-c2ccccc2)noc1C [Compound 20C],50 to 100,50 to 100,0,–,–,–
COCCC(=O)S/C(=N\c1c(C)cccc1C)N/N=C/c1ccc(-c2ncn(-c3ccc(OC(F)(F)F)cc3)n2)cc1 [Compound 21C],–,–,0,–,–,–
CCOCC(=O)OCS/C(=N\c1c(C)cccc1C)N/N=C/c1ccc(-c2ncn(-c3ccc(OC(F)(F)F)cc3)n2)cc1 [Compound 22C],50 to 100,50 to 100,0 to 80,–,–,–
Cc1cccc(C)c1/N=C(/N/N=C/c1ccc(-c2ncn(-c3ccc(OC(F)(F)F)cc3)n2)cc1)SCOC(=O)CNC(=O)OCc1ccccc1 [Compound 23C],–,–,–,50 to 100,50 to 100,0
COc1cc(C)c(/N=C(/N/N=C(\C)c2ccc(-c3ncn(-c4ccc(OC(F)(F)F)cc4)n3)cc2)SCOC(=O)C(C)C)c(C)c1 [Compound 26C],–,–,0,–,–,–
CCOCC(=O)OCS/C(=N\c1c(Cl)cc(OC)cc1Cl)N/N=C/c1ccc(-c2ncn(-c3ccc(OC(F)(F)F)cc3)n2)cc1 [Compound 32C],–,–,0 to 80,–,–,–
COc1cc(Cl)c(/N=C(/N/N=C/c2ccc(-c3ncn(-c4ccc(OC(F)(F)F)cc4)n3)cc2)SCOC(=O)C(C)C)c(Cl)c1 [Compound 34C],–,–,0 to 80,–,–,–
Cc1cccc(C)c1/N=C(/N/N=C/c1ccc(-c2ncn(-c3ccc(OC(F)(F)F)cc3)n2)cc1)SCOC(=O)C(C)OCC(F)(F)F (centres unmarked) [Compound 39C],–,–,0,–,–,–
"CC(C)c1ccccc1/N=C1\SCCCN1/N=C/c1ccc(-c2ncn(-c3ccc(C(F)(F)F)cc3)n2)cc1 [Compound 87C, (2Z,NE)-2-((2-isopropylphenyl)imino)-N-(4-(1-(4-(trifluoromethyl)phenyl)-1H-1,2,4-triazol-3-yl)benzylidene)-1,3-thiazinan-3-amine]",–,–,0 to 80,–,–,–
CCC(C)c1ccccc1N1/C(=N/N=C/c2ccc(-c3ncn(-c4ccc(OC(F)(F)F)cc4)n3)cc2)SCC1(O)C(F)(F)F (centres unmarked) [Compound 247C],50 to 100,50 to 100,–,–,–,–
CC1(O)CS/C(=N\N=C\c2ccc(-c3ncn(-c4ccc(OC(F)(F)F)cc4)n3)cc2)N1c1ccccc1C1CCCC1 (centres unmarked) [Compound 249C],50 to 100,50 to 100,–,–,–,–
Cc1cccc(N2/C(=N/N=C/c3ccc(-c4ncn(-c5ccc(OC(F)(F)F)cc5)n4)cc3)SCC2(C)O)c1C(C)C (centres unmarked) [Compound 252C],50 to 100,50 to 100,–,–,–,–
CC(C)c1cc(F)ccc1N1/C(=N/N=C/c2ccc(-c3ncn(-c4ccc(OC(F)(F)F)cc4)n3)cc2)SCC1(C)O (centres unmarked) [Compound 258C],50 to 100,50 to 100,–,–,–,–
